Source: patent US10543284B2, “Anti-c-Met antibody and anti-c-Met antibody-cytotoxic drug conjugate and pharmaceutical use thereof” (Suzhou Suncadia Biopharmaceuticals Co., Ltd., priority 2015, dated 2020)
Like-named read-outs stand apart in the source and are kept apart here. *1 amine or outer side, *2 acyl side, *3 side chain or, on linkers, in order; H or OH if unused. Where a SMILES comes first, the peptide text is derived from it. [ ]: non-standard residue; d: D form. X1 = CO[C@H]([C@@H](C)C(=O)[*:2])[C@@H]1C[C@@H]2C[C@@H]2N1[*:1]; Dolaproine = CO[C@@H]([C@@H]1CCCN1)[C@@H](C)C(=O)O; Dil = CC[C@H](C)[C@H](NC)[C@@H](CC(=O)O)OC; Phe(2-F) = N[C@@H](Cc1ccccc1F)C(=O)O; NMeV = CN[C@H](C(=O)O)C(C)C

Legend:
[1] = test system: MKN45 cell; experiment: ATP cytotoxicity test (CellTiter-Glo, 72 hours) in MKN45; assay type: cell-based, human
Procedure: In order to assess the toxic effects of the ADC molecules of the present invention on cells, the ATP toxicity test was performed. ATP is an indicator of the metabolism of living cells, and the detection of ATP can reflect the effect of the toxicity of molecules on cells.
HepG2 cells (Chinese Academy of Sciences cell bank, Cat # TCHu 72) were cultivated in EMEM complete medium containing 10% FBS, and MKN45 cells were cultivated in RPMI1640 complete medium containing 10% FBS. Trypsinization was performed for 2-3 min by adding 2-3 ml trypsin, 10-15 ml complete medium was added to elute the trypsinized cells when the trypsinization was complete, and the cells were centrifuged at 1000 rpm for 3 min. The supernatant was discarded, 10-20 ml complete medium was added to resuspend the cells to obtain a single cell suspension, and the cell density was adjusted to 4×10^4 cells/ml. 0.1 ml of the above cell suspension was added to each well of a 96-well cell culture plate and cultivated in an incubator at 37° C. in 5% CO2. […] The chemiluminescence was measured by a microplate reader (VICTOR 3, PerkinElmer), and the result was analyzed by GraphPad Prism (version 5.0) software.

[2] = test system: HepG2 cell; experiment: ATP cytotoxicity test (CellTiter-Glo, 72 hours) in HepG2; assay type: cell-based, human
Procedure: HepG2 cells (Chinese Academy of Sciences cell bank, Cat # TCHu 72) were cultivated in EMEM complete medium containing 10% FBS, and MKN45 cells were cultivated in RPMI1640 complete medium containing 10% FBS. Trypsinization was performed for 2-3 min by adding 2-3 ml trypsin, 10-15 ml complete medium was added to elute the trypsinized cells when the trypsinization was complete, and the cells were centrifuged at 1000 rpm for 3 min. The supernatant was discarded, 10-20 ml complete medium was added to resuspend the cells to obtain a single cell suspension, and the cell density was adjusted to 4×10^4 cells/ml. 0.1 ml of the above cell suspension was added to each well of a 96-well cell culture plate and cultivated in an incubator at 37° C. in 5% CO2. […] Detection was performed according to the instructions of CellTiter-Glo® Luminescent Cell Viability Assay kit (Promega, Cat # G7571). The chemiluminescence was measured by a microplate reader (VICTOR 3, PerkinElmer), and the result was analyzed by GraphPad Prism (version 5.0) software.

[3] = test system: a variety of human tumor cell lines; conditions: cited from earlier work
[4] = target: T1, human c-Met-His (Homo sapiens, UniProt P08581); experiment: ELISA binding of c-Met antibody to c-Met antigen; conditions: hybridoma fusion clones, ELISA read at 450 nm
T1 construct: His (C); made in house; host or cells: 293F cells
Procedure: This experiment uses enzyme linked immunosorbent assay (ELISA) to detect affinity of c-Met antibody to c-Met antigen in vitro (including supernatant of hybridoma or recombinantly expressed monoclonal antibodies).
Experimental procedures: Coating buffer (PBS; Hyclone, Cat No.: SH30256.01B) was used to dilute antigen (human c-Met-His, example 1) to 2 μg/ml, which was added to 96-well plate with 100 μl/well (Costar 9018, Cat No.: 03113024) and incubated overnight at 4′C. […] The plate was read with plate reader at 450 nm.
After immunization, mice with a serum titer higher than 1:10^5 were selected for fusion. Mouse B-cells and myeloma cells (SP2/0, ATCC number: CRL-1581™) were prepared respectively in aseptic conditions and counted. […] The next day, positive clones were detected by ELISA (see Methods in Example 2).

[5] = test system: MKN45 cells; experiment: Inhibition of proliferation of MKN45 gastric cancer cells (CellTiter-Glo, 5 days); assay type: cell-based, human; conditions: monoclone culture supernatant, 5 days
From the text: The clones above were selected and further cultured to obtain monoclones. After verification of binding activity by ELISA, monoclones were selected for cultivation, and the resulting supernatant was subjected to a cell viability assay. According to the experiment principle, anti-human c-Met antibodies of the invention are able to inhibit phosphorylation of c-Met expressed on the surface of human gastric cancer cell line MKN45, thereby inhibiting the proliferation of MNK45 cells.
Human gastric cancer cells (MKN45, JCRB, JCRB0254, P11) were added to a 96-well cell culture plate (costar, #3799) at 1×10^5 cells/mL and 50 μl/well. The medium was RPMI1640 medium: (GIBCO, cat #11835)+10% FBS (GIBCO-10099141). Anti-human c-Met antibodies to be tested were added at 50 μl/well, and the plate was cultured for 5 days in incubator at 37′C (Manufacture: SANYO; Equipment No. TINC035). CellTiter-Glo® Luminescent Cell Viability Assay (Promega, G7573) was used, and the proliferation of cells was detected according to the instructions. The plate was read by a PerkinElmer plate reader, TREA001-RDA-IBA100. The following formula was used to calculate the percentage proliferation of cells: % proliferation of cells=(1−cell reads in experimental group/cell reads in untreated group)×100%.

T1 sequence (P08581 25-932 limits assumed): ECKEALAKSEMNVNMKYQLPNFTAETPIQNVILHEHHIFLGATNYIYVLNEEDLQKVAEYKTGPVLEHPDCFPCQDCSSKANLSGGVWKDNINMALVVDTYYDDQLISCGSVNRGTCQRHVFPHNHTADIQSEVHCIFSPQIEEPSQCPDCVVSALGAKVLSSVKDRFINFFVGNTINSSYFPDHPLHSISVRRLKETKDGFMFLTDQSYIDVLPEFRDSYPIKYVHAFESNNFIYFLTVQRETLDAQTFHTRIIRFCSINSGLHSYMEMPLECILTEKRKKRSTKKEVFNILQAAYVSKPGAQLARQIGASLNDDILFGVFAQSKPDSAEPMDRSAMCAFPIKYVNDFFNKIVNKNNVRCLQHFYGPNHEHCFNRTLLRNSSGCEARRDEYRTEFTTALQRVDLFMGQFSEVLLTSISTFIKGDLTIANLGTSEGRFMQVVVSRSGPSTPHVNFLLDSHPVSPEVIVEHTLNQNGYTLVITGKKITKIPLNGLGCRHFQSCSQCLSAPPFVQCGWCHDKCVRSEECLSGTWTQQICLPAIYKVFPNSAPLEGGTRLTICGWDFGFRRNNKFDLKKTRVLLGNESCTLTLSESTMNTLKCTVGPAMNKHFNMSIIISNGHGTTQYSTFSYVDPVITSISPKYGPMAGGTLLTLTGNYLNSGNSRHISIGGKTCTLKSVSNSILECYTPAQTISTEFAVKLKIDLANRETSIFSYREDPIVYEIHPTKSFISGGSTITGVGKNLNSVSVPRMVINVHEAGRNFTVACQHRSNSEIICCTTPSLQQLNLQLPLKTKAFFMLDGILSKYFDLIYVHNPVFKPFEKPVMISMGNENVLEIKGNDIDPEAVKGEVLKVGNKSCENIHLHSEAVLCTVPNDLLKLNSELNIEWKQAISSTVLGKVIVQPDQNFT

CC[C@H](C)[C@@H]([C@@H](CC(=O)N1[C@H]2C[C@H]2C[C@H]1[C@H](OC)[C@@H](C)C(=O)N[C@@H](Cc1ccccc1F)C(=O)O)OC)N(C)C(=O)[C@@H](NC(=O)[C@@H](NC)C(C)C)C(C)C [12 g, (S)-2-((2R,3R)-3-((1S,3S,5S)-2-((3R,4S,5S)-4-((S)—N,3-dimethyl-2-((S)-3-methyl-2-(methylamino)butyramide)butyramide)-3-methoxy-5-methylheptanoyl)-2-azabicyclo[3.1.0]hexane-3-yl)-3-methoxy-2-methylpropanamido)-3-(2-fluorophenyl)propionic acid] (H-[NMeV]V[Dil][X1][Phe(2-F)]-OH)
IC50 ([1]; Homo sapiens, MKN-45): 79.4 nM | IC50 ([2]; Homo sapiens, HepG2, ND: No activity was detected): 401 nM

CC[C@H](C)C([C@@H](CC(=O)N1CCC[C@H]1[C@H](OC)[C@@H](C)C(=O)N[C@H](C)[C@@H](O)c1ccccc1)OC)N(C)C(=O)[C@@H](NC(=O)[C@@H](NC)C(C)C)C(C)C (stereo partly shown) [MMAE, Monomethyl aurantatin E]
inhibitory activities against a variety of human tumor cell lines [3]: less than one nanomolar

CC[C@H](C)[C@@H]([C@@H](CC(=O)N1CCC[C@H]1[C@H](OC)[C@@H](C)C(=O)N[C@@H](Cc1ccccc1)C(=O)O)OC)N(C)C(=O)[C@@H](NC(=O)[C@@H](NC)C(C)C)C(C)C [MMAF, reference compound] (H-[NMeV]V[Dil][Dolaproine]F-OH)
IC50 [1]: 0.85 nM | IC50 ([2]; ND: No activity was detected): 4.88 nM

B1: Ab-5: mouse hybridoma cell monoclonal antibody; heavy chain variable region SEQ ID NO: 4, light chain variable region SEQ ID NO: 5 (antibody, V domains shown)
VH: QVQLKQSGPGLVQPSQSLSITCTVSGFSLPNYGVHWVRQSPGKGLEWLGVIWSGGSTNYAAAFVSRLRISKDNSKSQVFFEMNSLQADDTAVYYCARNHDNPYNYAMDYWGQGTTVTVSS
VL: DIVLTQSPGSLAVYLGQRATISCRANKSVSTSTYNYLHWYQQKPGQPPKLLIYLASNLASGVPARFSGSGSGTDFTLNIHPLEEEDAATYYCQHSRDLPPTFGAGTKLELKR
modifications: Murine
Detection Results (OD450) [4]: 1.64 | MKN45 inhibition percentage (%) [5]: 77.4%
